# Experimental data from BindingDB's records for doi:10.7270/Q2ZC817P (The Scripps Research Institute Molecular Screening Center, 2007).
# Target: Sphingosine 1-phosphate receptor 1 (Homo sapiens, UniProt P21453)
# Assay: potentiators of S1P1 agonist response, dose response, cell-based, potentiator mode, 60K MLSMR set (AID 466)
# Settings: not given
# Sequence of Sphingosine 1-phosphate receptor 1 (P21453 whole entry): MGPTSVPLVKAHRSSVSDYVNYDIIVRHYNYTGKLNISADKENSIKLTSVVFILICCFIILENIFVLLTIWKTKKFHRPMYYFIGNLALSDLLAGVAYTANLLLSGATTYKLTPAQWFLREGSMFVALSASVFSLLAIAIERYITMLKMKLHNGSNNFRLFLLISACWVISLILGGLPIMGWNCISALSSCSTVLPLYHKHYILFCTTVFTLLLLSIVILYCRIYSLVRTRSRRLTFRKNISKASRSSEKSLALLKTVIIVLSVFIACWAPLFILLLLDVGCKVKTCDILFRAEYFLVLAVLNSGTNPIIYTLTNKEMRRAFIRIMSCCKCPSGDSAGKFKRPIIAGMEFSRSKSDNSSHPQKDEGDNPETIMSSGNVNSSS
row,Structure (SMILES),EC50
1,CCSc1nnc(NC(=O)C(Cc2ccccc2)n2cccc2)s1 (stereo not drawn) [MLS000119034],> 30 µM
2,"COc1ccc(-n2c(O)cc(Sc3nnc[nH]3)c2O)c(OC)c1 [1-(2,4-dimethoxyphenyl)-3-(1H-1,2,4-triazol-5-ylthio)pyrrolidine-2,5-dione]",16.4 µM
3,"CCOC(=O)c1ccc2c(c1)C(=O)N(C1CCCCC1)C2=O [2-cyclohexyl-1,3-diketo-isoindoline-5-carboxylic acid ethyl ester]",> 95 µM
4,CC(C)Cc1cc(C(=O)Nc2sc3c(c2C#N)CCCC3)no1 [MLS000116410],9.59 µM
5,"C=CCN1/C(=N/c2cccnc2)SCC1(O)c1ccc(C)cc1 (stereo not drawn) [(2E)-3-allyl-4-(4-methylphenyl)-2-(pyridin-3-ylimino)-1,3-thiazolidin-4-ol]",7.92 µM
6,COc1ccc(-n2nnnc2S(=O)(=O)CC(=O)N2CCCCC2)cc1 [2-[1-(4-methoxyphenyl)tetrazol-5-yl]sulfonyl-1-piperidin-1-ylethanone],9.83 µM
7,Oc1ccc(-c2nc(-c3ccc(O)c(O)c3)cs2)cc1,13.1 µM
8,"CC1CCc2nc(NC(=O)CSc3nc4ccccc4o3)sc2C1 (stereo not drawn) [2-(1,3-benzoxazol-2-ylsulfanyl)-N-(6-methyl-4,5,6,7-tetrahydro-1,3-benzothiazol-2-yl)acetamide]",> 30 µM
9,"Cc1ccsc1C(=O)OCC(=O)c1cc(C)n(CC2CCCO2)c1C (stereo not drawn) [3-methyl-2-thiophenecarboxylic acid [2-[2,5-dimethyl-1-(2-oxolanylmethyl)-3-pyrrolyl]-2-oxoethyl] ester]",8.31 µM
10,"COc1ccc(N2CCn3c2nc2c3c(=O)n(CCCc3ccccc3)c(=O)n2C)c(OC)c1 [6-(2,4-dimethoxyphenyl)-4-methyl-2-(3-phenylpropyl)-7,8-dihydropurin[7,8-a]imidazole-1,3-quinone]",8.71 µM
11,CCn1c(NC(=O)c2cccc(Cn3cc(Cl)cn3)c2)nc2ccccc21 [3-[(4-chloranylpyrazol-1-yl)methyl]-N-(1-ethylbenzimidazol-2-yl)benzamide],> 10 µM
12,CCn1c(-c2cccc(Cl)c2)n[nH]c1=S [SMR000104244],> 95 µM
13,"Cn1c(=O)oc2cc(S(=O)(=O)N3CCCC(C(=O)N4CC=C(c5ccccc5)CC4)C3)ccc21 (stereo not drawn) [3-methyl-6-[3-(4-phenyl-3,6-dihydro-2H-pyridine-1-carbonyl)piperidin-1-yl]sulfonyl-1,3-benzoxazol-2-one]",9.49 µM
14,Cn1ncnc2c(=O)n(C)c(=O)nc1-2,1.73 µM

# Continued, values first:
row,EC50,Structure (SMILES)
1,7.77 µM,"COc1ccc(S(=O)(=O)N2CCN(c3ccc(C)cc3C)CC2)cc1OC [1-(3,4-dimethoxyphenyl)sulfonyl-4-(2,4-dimethylphenyl)piperazine]"
2,7.48 µM,O=C(CSc1nnc(-c2c[nH]c3ccccc23)o1)N1c2ccccc2CCc2ccccc21
3,7.02 µM,"CCN(C1CCCCC1)S(=O)(=O)c1ccc(S(=O)(=O)NCc2ccncc2)cc1 [4-N-cyclohexyl-4-N-ethyl-1-N-(pyridin-4-ylmethyl)benzene-1,4-disulfonamide]"
4,6.75 µM,"Cc1cc(-c2nnc(-c3ccccc3)c(-c3ccccc3)n2)c(C)o1 [3-(2,5-dimethyl-3-furanyl)-5,6-diphenyl-1,2,4-triazine]"
5,6.67 µM,"O=C(NCc1ccccc1)N1CCN(c2ccc(Cl)c(Cl)c2)CC1 [4-(3,4-dichlorophenyl)-N-(phenylmethyl)-1-piperazinecarboxamide]"
6,6.59 µM,"CCOc1nc(C)ccc1-c1noc(-c2ccncc2)n1 [2-ethoxy-6-methyl-3-[5-(4-pyridinyl)-1,2,4-oxadiazol-3-yl]pyridine]"
7,6.01 µM,CC1(C)CC(=O)C(=CNc2ccc3[nH]ncc3c2)C(=O)C1 [SMR000111453]
8,5.47 µM,Cc1cc(C(=O)Nc2sc(C)c(-c3ccc(F)cc3)c2C(N)=O)no1 [MLS000043467]
9,5.39 µM,"CCCCNc1cc(C)nc(NCc2ccccc2)n1 [2-N-benzyl-4-N-butyl-6-methylpyrimidine-2,4-diamine]"
10,4.58 µM,CCOC(=O)c1c(C)[nH]c(C(=O)C(C)OC(=O)c2cccc(OCc3c(C)noc3C)c2)c1C (stereo not drawn) [MLS000054923]
11,4.41 µM,"CCc1ccc(-c2nc(-c3ccncc3)no2)cc1 [5-(4-ethylphenyl)-3-(4-pyridyl)-1,2,4-oxadiazole]"
12,3.83 µM,"COc1ccc(C(c2c(O)ccc3ccccc23)N2CCOCC2)c(OC)c1 (stereo not drawn) [1-[(2,4-dimethoxyphenyl)-(4-morpholinyl)methyl]-2-naphthalenol]"
13,3.77 µM,COc1ccccc1-n1nnnc1S(=O)(=O)Cc1ccc(Cl)cc1 [5-(4-chlorobenzyl)sulfonyl-1-(2-methoxyphenyl)tetrazole]
14,3.73 µM,"Cc1oc2cc(O)cc(O)c2c(=O)c1-c1ccc2c(c1)OCCCO2 [3-(3,4-dihydro-2H-1,5-benzodioxepin-7-yl)-2-methyl-5,7-bis(oxidanyl)chromen-4-one]"
15,3.55 µM,N#CCCS(=O)(=O)c1nnnn1-c1ccccc1 [3-(1-phenyltetrazol-5-yl)sulfonylpropanenitrile]
16,3.45 µM,"Clc1ccc(OCc2nc(-c3ccncc3)no2)c(Br)c1 [5-[(2-bromanyl-4-chloranyl-phenoxy)methyl]-3-pyridin-4-yl-1,2,4-oxadiazole]"
17,3.4 µM,O=C(Nc1ccc(-c2noc(CCc3ccccc3)n2)cc1)c1cccnc1 [MLS000047253]
18,3.37 µM,CCOC(=O)C1C(=O)C=C(c2ccc(OC)cc2)CC1c1ccco1 (stereo not drawn) [6-(2-furanyl)-4-(4-methoxyphenyl)-2-oxo-1-cyclohex-3-enecarboxylic acid ethyl ester]
19,3.08 µM,CCCc1cc(C(=O)Nc2sc(C)c(CC)c2C#N)no1 [MLS000116385]
20,2.92 µM,O=C(Nc1ncc(Br)s1)C(Cc1ccccc1)n1cccc1 (stereo not drawn) [MLS000119027]
21,2.84 µM,"CC(C)c1cc(C(F)(F)F)n2nc(C(=O)Nc3ccc4c(c3)OCO4)cc2n1 [5-Isopropyl-7-trifluoromethyl-pyrazolo[1,5-a]pyrimidine-2-carboxylic acid benzo[1,3]dioxol-5-ylamide]"
22,2.79 µM,"C=C(C)COc1ccc(-c2nc(N)nc(C)c2Oc2ccccc2OC)c(O)c1 [(6E)-6-[2-amino-5-(2-methoxyphenoxy)-6-methyl-1H-pyrimidin-4-ylidene]-3-(2-methylallyloxy)cyclohexa-2,4-dien-1-one]"
23,2.65 µM,"OC(c1cccc(OCc2ccccc2)c1)c1nnc(-c2ccccc2)o1 (stereo not drawn) [(3-benzoxyphenyl)-(5-phenyl-1,3,4-oxadiazol-2-yl)methanol]"
24,2.55 µM,"O=C(CSC1=NCCS1)Nc1ccnc2ccccc12 [2-(4,5-dihydro-1,3-thiazol-2-ylsulfanyl)-N-quinolin-4-yl-ethanamide]"
25,2.55 µM,"COc1ccccc1OCc1nc(C#N)c(N2CC(C)CC(C)C2)o1 (stereo not drawn) [5-(3,5-dimethyl-1-piperidinyl)-2-[(2-methoxyphenoxy)methyl]-4-oxazolecarbonitrile]"
26,2 µM,"Fc1ccc2[nH]c3c(N4CCN(Cc5ccc6c(c5)OCO6)CC4)ncnc3c2c1 [4-[4-(1,3-benzodioxol-5-ylmethyl)-1-piperazinyl]-8-fluoro-5H-pyrimido[5,4-b]indole]"
27,1.07 µM,"COc1ccc(-c2nc(-c3cccc(C)c3)no2)cc1OC [5-(3,4-dimethoxyphenyl)-3-(3-methylphenyl)-1,2,4-oxadiazole]"
28,0.437 µM,"Oc1ccc(-c2nnc(SCC3CCCCC3)o2)cc1 [4-(5-Cyclohexylmethylsulfanyl-[1,3,4]oxadiazol-2-yl)-phenol]"

# Same assay, conditions: inactive by the depositor's call
row,EC50,Structure (SMILES)
1,48.2 µM,COc1ccc(OCCCSc2ncccn2)cc1 [2-[3-(4-methoxyphenoxy)propylsulfanyl]pyrimidine]
2,12.9 µM,"CN1CCN(C(=O)CSc2nc(-c3cccs3)cc(-c3cccs3)c2C#N)CC1 [2-[2-(4-methylpiperazin-1-yl)-2-oxidanylidene-ethyl]sulfanyl-4,6-dithiophen-2-yl-pyridine-3-carbonitrile]"
3,11 µM,"CC1=CC(C)(C)Nc2ccc(OC(=O)c3cccnc3)cc21 [(2,2,4-trimethyl-1H-quinolin-6-yl) pyridine-3-carboxylate]"
4,17.5 µM,"Cc1cc(C(=O)COC(=O)c2csc3c2CCCC3)c(C)n1C [4,5,6,7-tetrahydro-1-benzothiophene-3-carboxylic acid [2-oxo-2-(1,2,5-trimethyl-3-pyrrolyl)ethyl] ester]"
5,13.8 µM,"O=C(C1CC1)N1CCc2cc(S(=O)(=O)NCC3COc4ccccc4O3)ccc21 (stereo not drawn) [1-(cyclopropanecarbonyl)-N-(2,3-dihydro-1,4-benzodioxin-3-ylmethyl)-2,3-dihydroindole-5-sulfonamide]"
6,16.5 µM,CCOC(=O)Cc1csc(NC(=O)c2ccc(Br)s2)n1 [2-[2-[(5-bromothiophene-2-carbonyl)amino]thiazol-4-yl]acetic acid ethyl ester]
7,40.4 µM,COC(=O)c1ccc(CSc2nc3ccccc3c(=O)n2Cc2ccco2)o1 [5-[[[3-(2-furanylmethyl)-4-oxo-2-quinazolinyl]thio]methyl]-2-furancarboxylic acid methyl ester]
8,10.4 µM,CCc1ccc2c(COC(=O)c3n[nH]c4ccccc34)cc(=O)oc2c1 [(7-ethyl-2-oxochromen-4-yl)methyl 1H-indazole-3-carboxylate]
9,45.2 µM,"O=C(CSCC(=O)N1CCCCC1)Nc1nc(-c2cccs2)cs1 [2-(2-oxidanylidene-2-piperidin-1-yl-ethyl)sulfanyl-N-(4-thiophen-2-yl-1,3-thiazol-2-yl)ethanamide]"
10,13.4 µM,"COc1ccc(Cc2nc(-c3ccc(-n4cccc4)cc3)no2)cc1OC [3-(4-pyrrol-1-ylphenyl)-5-veratryl-1,2,4-oxadiazole]"
11,16.7 µM,CC(=O)Nc1ccc(S(=O)(=O)N2CCN(c3cccc(C)c3C)CC2)cc1 [MLS000115810]
12,15.5 µM,O=C(Nc1nc(-c2nc3ccccc3s2)cs1)c1ccc(S(=O)(=O)N2CCOCC2)cc1 [MLS000087900]
13,14.2 µM,CN(Cc1cccs1)c1ncnc2sccc12 [MLS000056228]
14,16 µM,"COc1cccc(-c2cc(C(=O)Nc3ccccc3SC)no2)c1 [5-(3-methoxyphenyl)-N-(2-methylsulfanylphenyl)-1,2-oxazole-3-carboxamide]"
15,13.7 µM,COc1ccc(-c2cc(C(=O)NC3CCCC3)no2)cc1OC [MLS000087117]

row,Structure (SMILES),EC50
1,CCCCCn1c(=O)c(C(=O)NCc2ccncc2)c(O)c2ccccc21 [1-amyl-2-hydroxy-4-keto-N-(4-pyridylmethyl)quinoline-3-carboxamide],24.4 µM
